{"source": "patent US8252749B2", "about": "“Methods, kits, and compositions for generating new hair follicles and growing hair” (Follica, Inc., priority 2006, dated 2012)", "key": {"[1]": {"system": "new HF formation by EDIHN in wounded skin", "assay": "whole-mount EDIHN assay after excisional wounding of mice", "type": "in vivo", "description": "Punch wound and excisional wound induction. The backs of 21-day-old mice were depilated as described for Example 1 and sterilized with alcohol, followed by 1% iodine solution. Punch wounds, 4 mm in diameter, were induced using a dermal biopsy punch, down to, but not through, the muscle fascia. Excisional wounds were full thickness and 1 cm in diameter; skin and panniculus carnosus was excised using fine surgical scissors.\nWhole mounting and immunofluorescence. HF whole mounts were obtained by incubating fresh skin with EDTA (20 mM in PBS) at 37° C. overnight, then separating the epidermis and dermis. Epidermis was then fixed in 10% formalin for 10 min, room temperature (RT). Dermis was fixed in acetone overnight, RT. After rinsing with PBS, whole mounts were stained with antibodies for immunohistochemistry (schematically depicted in FIG. 12) and were imaged using a Leica confocal microscope.\n21 day-old mice were wounded as described in previous Examples. Starting from day 11 after wounding, a time point corresponding to the point at which the wound had recently re-epithelialized, 10 mL of 1 mg/ml EGF was injected into the wound bed. EGF was injected once per day after this point for a total of 5 days. Three days later, the skin was collected, and whole-mount EDIHN assays were performed. […] In addition, whole mounts of control and treated skin were analyzed with anti-K17 antibody immunostaining. […] (FIGS. 25 C-D).\nIn an additional experiment, recombinant EGF (1 microgram (mcg)/microliter (mcl)) was injected at days 11, 13 and 15 after wounding. Skin was collected at 18 days after wounding and stained for K17 and alkaline phosphotase.\nTo determine the effect of administration of EGF receptor inhibitors on DIHN, the inhibitor AG1478 (150 μM in 10 μL volume) was administered as a single injection 11 days after incisional wounding (1 cm2) to the middle of the wound near the skin surface. […] Left panel: epidermis stained for K17, with three large hair follicles next to each other. Right panel: dermis stained for AP with large coalescing dermal papilla areas."}, "[2]": {"system": "hair re-growth in abraded areas", "assay": "hair re-growth after epidermal abrasion of mice", "type": "in vivo", "settings": "epidermis of mice abraded, then recombinant EGF administered", "description": "Depilation and epidermal abrasion. Mice were anesthetized with an injection of sodium pentobarbital before the hair on the back was clipped and depilated with Nair (Carter-Wallace, New York, N.Y.), then epidermis was removed using a rotating felt wheel as described by Argyris T, J. Invest. Dermatol. 75: 360 (1980). After scrubbing with 70% ethanol and drying under an incandescent lamp, the basal and supra-basal layers in an area of 1.5 cm^2/cm of the inter-follicular epidermis were removed by careful abrasion with a felt wheel mounted on a Dremel Moto-tool (Racine, Wis.). After abrasion, the skin was shiny and smooth, and there was no blood. One day later, the abraded area was covered by a fibrin crust, which fell off after 3-7 days, exposing the newly regenerated epidermis. A group of control mice was sacrificed immediately after abrasion to confirm microscopically the complete removal of the interfollicular epidermis.\nHair-bearing regions of the epidermis of mice is abraded, as described in Example 1, then administering recombinant EGF, as described in Example 1."}}, "note": "“Also recorded” adds a separate entry of the source.", "data": [{"molecule": "COc1cc2ncnc(Nc3cccc(Cl)c3)c2cc1OC", "note": "[AG1478, reference compound]", "values": [{"measurement": "generation of hair follicles (number and size) compared with control mice that were wounded only", "setting": "[1]; 150 μM in 10 μL, single injection 11 days after excisional wounding (1 cm diameter), middle of the wound", "result": "more and larger hair follicles; also recorded: more and larger HF"}]}, {"molecule": "EGF: epidermal growth factor, recombinant, injected into the wound bed", "values": [{"measurement": "HF formation as assessed by gross morphology", "setting": "[1]; 21 day-old mice, 10 mL of 1 mg/ml EGF injected into wound bed once per day for 5 days from day 11 after wounding, skin collected three days later", "result": "prevented HF formation"}, {"measurement": "new HF formation, whole mounts with anti-K17 antibody immunostaining", "setting": "[1]; 21 day-old mice, EGF injected into wound bed once per day for 5 days from day 11 after wounding, n=4 vs control n=2", "result": "no new HF formation; also recorded: inhibits HF formation"}, {"measurement": "EDIHN, skin stained for K17 and alkaline phosphotase", "setting": "[1]; recombinant EGF 1 mcg/mcl injected at days 11, 13 and 15 after wounding, skin collected at 18 days", "result": "inhibited EDIHN"}, {"measurement": "hair re-growth in the abraded areas", "setting": "[2]", "result": "prevents hair re-growth"}]}]}
